Results published in patent US9708314B2, “Heterocyclic amide compound” (NISSAN CHEMICAL INDUSTRIES, LTD., priority 2013, dated 2017).

How the values were obtained:
Assay type in all cases: in vivo
Leptochloa chinensis = assay: Test Example 3: herbicidal effect by application to foliage (Wagner pot, water depth 0.1-0.5 cm); conditions: Nineteenth Table, application to foliage
Outline: (§1)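 Alluvial soil in 1/10000 are Wagner pots, sown and grown 14 days in a 25–30 °C greenhouse. An emulsifiable concentrate diluted in water to the set dose (g/ha) was sprayed on stems and leaves. Effect scored three weeks later on a 0–5 scale: 5 = ≥90% herbicidal ratio, 0 = ≤5%.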

[1] = tested on: Echinochloa crus-galli var. crus-galli; assay: as above; conditions: Nineteenth Table, application to foliage
Outline: as §1

Cyperus difformis = assay: as above; conditions: Nineteenth Table, application to foliage
Outline: as §1

[2] = tested on: directly sowed Oryza sativa; assay: Test Example 3: effect on crop by application to foliage (Wagner pot, water depth 0.1-0.5 cm); conditions: Nineteenth Table, application to foliage
Outline: as §1

Digitaria ciliaris = assay: Test Example 4: herbicidal effect by application to foliage (diluvial soil, plastic box); conditions: foliage application
Outline: (§2)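 Plants were grown in sterilized diluvial soil in a greenhouse at 25-30° C for 14 days, then sprayed on stems and leaves with water-diluted emulsion formulation at set rates in g/ha. Weed control and crop injury were scored 3 weeks after treatment on a 0-5 herbicidal-ratio scale, from 0 (≤5%) to 5 (≥90%).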

Stellaria media = assay: as above; conditions: foliage application
Outline: as §2

Lolium multiflorum Lam. = assay: as above; conditions: foliage application
Outline: as §2

Chenopodium album = assay: as above; conditions: foliage application
Outline: as §2

Amaranthus retroflexus = assay: as above; conditions: foliage application
Outline: as §2

Setaria viridis = assay: as above; conditions: foliage application
Outline: as §2

Apera spica-venti. = assay: as above; conditions: foliage application
Outline: as §2

Alopecurus myosuroides = assay: as above; conditions: foliage application
Outline: as §2

Galium spurium = assay: as above; conditions: foliage application
Outline: as §2

[3] = tested on: Echinochloa crus-galli var. crus-galli; assay: as above; conditions: foliage application
Outline: as §2

Avena fatua = assay: as above; conditions: foliage application
Outline: as §2

Veronica persica = assay: as above; conditions: Application herbicide amount 320 g/ha; foliage application
Outline: as §2

Abutilon theophrasti = assay: as above; conditions: foliage application
Outline: as §2

Glycine max = assay: Test Example 4: effect on crop by application to foliage (diluvial soil, plastic box); conditions: foliage application; for d (Glycine max) effect on crop grade: Application herbicide amount 320 g/ha
Outline: as §2

Brassica campestris L. = assay: as above; conditions: foliage application
Outline: as §2

[4] = tested on: Beta vulgaris ssp. vulgaris; assay: as above; conditions: foliage application
Outline: as §2

Triticum aestivum = assay: as above; conditions: foliage application
Outline: as §2

Zea mays = assay: as above; conditions: foliage application; for c (Zea mays) effect on crop grade: Application herbicide amount 320 g/ha
Outline: as §2

[5] = tested on: directly sowed Oryza sativa; assay: as above; conditions: foliage application, 131 g/ha
Outline: as §2

[6] = application herbicide amount 320 g/ha
[7] = Application herbicide amount 320 g/ha
[8] = application herbicide amount 131 g/ha

## CC(C)c1nnc2c(C(=O)Nc3nnc(CS(C)(=O)=O)o3)ccc(C(F)(F)F)n12 [1-142]
Leptochloa chinensis; [6]
  D (herbicidal effect grade): 1 (Herbicidal ratio of 5% or more and less than 20%)
[1]; [6]
  H (herbicidal effect grade): 3 (Herbicidal ratio of 40% or more and less than 70%)
Cyperus difformis; [6]
  E (herbicidal effect grade): 0 (Herbicidal ratio of 5% or less (almost no effect))
[2]; [6]
  b (effect on crop grade): 0 (Herbicidal ratio of 5% or less (almost no effect))
Digitaria ciliaris; [7]
  F (Digitaria ciliaris) herbicidal effect grade: 1 (Herbicidal ratio of 5% or more and less than 20%)
Stellaria media; [7]
  P (Stellaria media) herbicidal effect grade: 2 (Herbicidal ratio of 20% or more and less than 40%)
Lolium multiflorum Lam.; [7]
  K (Lolium multiflorum Lam.) herbicidal effect grade: 0 (Herbicidal ratio of 5% or less (almost no effect))
Chenopodium album; [7]
  O (Chenopodium album) herbicidal effect grade: 4 (Herbicidal ratio of 70% or more and less than 90%)
Amaranthus retroflexus; [7]
  N (Amaranthus retroflexus) herbicidal effect grade: 1 (Herbicidal ratio of 5% or more and less than 20%)
Setaria viridis; [7]
  G (Setaria viridis) herbicidal effect grade: 0 (Herbicidal ratio of 5% or less (almost no effect))
Apera spica-venti.; [7]
  L (Apera spica-venti.) herbicidal effect grade: 0 (Herbicidal ratio of 5% or less (almost no effect))
Alopecurus myosuroides; [7]
  J (Alopecurus myosuroides) herbicidal effect grade: 0 (Herbicidal ratio of 5% or less (almost no effect))
Galium spurium; [7]
  Q (Galium spurium) herbicidal effect grade: 1 (Herbicidal ratio of 5% or more and less than 20%)
[3]; [7]
  H (Echinochloa crus-galli var. crus-galli) herbicidal effect grade: 3 (Herbicidal ratio of 40% or more and less than 70%)
Avena fatua; [7]
  I (Avena fatua) herbicidal effect grade: 0 (Herbicidal ratio of 5% or less (almost no effect))
Veronica persica
  R (Veronica persica) herbicidal effect grade: 0 (Herbicidal ratio of 5% or less (almost no effect))
Abutilon theophrasti; [7]
  M (Abutilon theophrasti) herbicidal effect grade: 0 (Herbicidal ratio of 5% or less (almost no effect))
Glycine max
  d (Glycine max) effect on crop grade: 0 (Herbicidal ratio of 5% or less (almost no effect))
Brassica campestris L.; [7]
  g (Brassica campestris L.) effect on crop grade: 0 (Herbicidal ratio of 5% or less (almost no effect))
[4]; [7]
  f (Beta vulgaris ssp. vulgaris) effect on crop grade: 3 (Herbicidal ratio of 40% or more and less than 70%)
Triticum aestivum; [7]
  e (Triticum aestivum) effect on crop grade: 0 (Herbicidal ratio of 5% or less (almost no effect))
Zea mays
  c (Zea mays) effect on crop grade: 0 (Herbicidal ratio of 5% or less (almost no effect))

## CC(C)c1nnc2c(C(=O)Nc3nnnn3C)ccc(-c3ccccc3)n12 [2-055]
Leptochloa chinensis; [8]
  D (herbicidal effect grade): 0 (Herbicidal ratio of 5% or less (almost no effect))
[1]; [8]
  H (herbicidal effect grade): 2 (Herbicidal ratio of 20% or more and less than 40%)
Cyperus difformis; [8]
  E (herbicidal effect grade): 0 (Herbicidal ratio of 5% or less (almost no effect))
[2]; [8]
  b (effect on crop grade): 0 (Herbicidal ratio of 5% or less (almost no effect))
Digitaria ciliaris; 131 g/ha
  F (Digitaria ciliaris) herbicidal effect grade: 0 (Herbicidal ratio of 5% or less (almost no effect))
Stellaria media; 131 g/ha
  P (Stellaria media) herbicidal effect grade: 4 (Herbicidal ratio of 70% or more and less than 90%)
Lolium multiflorum Lam.; 131 g/ha
  K (Lolium multiflorum Lam.) herbicidal effect grade: 0 (Herbicidal ratio of 5% or less (almost no effect))
Chenopodium album; 131 g/ha
  O (Chenopodium album) herbicidal effect grade: 5 (Herbicidal ratio of 90% or more (almost completely withered))
Amaranthus retroflexus; 131 g/ha
  N (Amaranthus retroflexus) herbicidal effect grade: 3 (Herbicidal ratio of 40% or more and less than 70%)
Setaria viridis; 131 g/ha
  G (Setaria viridis) herbicidal effect grade: 0 (Herbicidal ratio of 5% or less (almost no effect))
Apera spica-venti.; 131 g/ha
  L (Apera spica-venti.) herbicidal effect grade: 0 (Herbicidal ratio of 5% or less (almost no effect))
Alopecurus myosuroides; 131 g/ha
  J (Alopecurus myosuroides) herbicidal effect grade: 0 (Herbicidal ratio of 5% or less (almost no effect))
Galium spurium; 131 g/ha
  Q (Galium spurium) herbicidal effect grade: 0 (Herbicidal ratio of 5% or less (almost no effect))
[3]; 131 g/ha
  H (Echinochloa crus-galli var. crus-galli) herbicidal effect grade: 0 (Herbicidal ratio of 5% or less (almost no effect))
Avena fatua; 131 g/ha
  I (Avena fatua) herbicidal effect grade: 0 (Herbicidal ratio of 5% or less (almost no effect))
Abutilon theophrasti; 131 g/ha
  M (Abutilon theophrasti) herbicidal effect grade: 4 (Herbicidal ratio of 70% or more and less than 90%)
Glycine max; 131 g/ha
  c (Glycine max) effect on crop grade: 0 (Herbicidal ratio of 5% or less (almost no effect))
Brassica campestris L.; 131 g/ha
  g (Brassica campestris L.) effect on crop grade: 0 (Herbicidal ratio of 5% or less (almost no effect))
[4]; 131 g/ha
  f (Beta vulgaris ssp. vulgaris) effect on crop grade: 1 (Herbicidal ratio of 5% or more and less than 20%)
[5]
  d (directly sowed Oryza sativa) effect on crop grade: 1 (Herbicidal ratio of 5% or more and less than 20%)
Triticum aestivum; 131 g/ha
  e (Triticum aestivum) effect on crop grade: 0 (Herbicidal ratio of 5% or less (almost no effect))
Zea mays; 131 g/ha
  b (Zea mays) effect on crop grade: 0 (Herbicidal ratio of 5% or less (almost no effect))

## COC(=O)CSc1nnc2c(C(=O)Nc3nnc(C)o3)ccc(C(F)(F)F)n12 [1-127]
Leptochloa chinensis; [6]
  D (herbicidal effect grade): 4 (Herbicidal ratio of 70% or more and less than 90%)
[1]; [6]
  H (herbicidal effect grade): 4 (Herbicidal ratio of 70% or more and less than 90%)
Cyperus difformis; [6]
  E (herbicidal effect grade): 3 (Herbicidal ratio of 40% or more and less than 70%)
[2]; [6]
  b (effect on crop grade): 0 (Herbicidal ratio of 5% or less (almost no effect))
Digitaria ciliaris; [7]
  F (Digitaria ciliaris) herbicidal effect grade: 1 (Herbicidal ratio of 5% or more and less than 20%)
Stellaria media; [7]
  P (Stellaria media) herbicidal effect grade: 3 (Herbicidal ratio of 40% or more and less than 70%)
Lolium multiflorum Lam.; [7]
  K (Lolium multiflorum Lam.) herbicidal effect grade: 0 (Herbicidal ratio of 5% or less (almost no effect))
Chenopodium album; [7]
  O (Chenopodium album) herbicidal effect grade: 5 (Herbicidal ratio of 90% or more (almost completely withered))
Amaranthus retroflexus; [7]
  N (Amaranthus retroflexus) herbicidal effect grade: 1 (Herbicidal ratio of 5% or more and less than 20%)
Setaria viridis; [7]
  G (Setaria viridis) herbicidal effect grade: 1 (Herbicidal ratio of 5% or more and less than 20%)
Apera spica-venti.; [7]
  L (Apera spica-venti.) herbicidal effect grade: 0 (Herbicidal ratio of 5% or less (almost no effect))
Alopecurus myosuroides; [7]
  J (Alopecurus myosuroides) herbicidal effect grade: 0 (Herbicidal ratio of 5% or less (almost no effect))
Galium spurium; [7]
  Q (Galium spurium) herbicidal effect grade: 0 (Herbicidal ratio of 5% or less (almost no effect))
[3]; [7]
  H (Echinochloa crus-galli var. crus-galli) herbicidal effect grade: 4 (Herbicidal ratio of 70% or more and less than 90%)
Avena fatua; [7]
  I (Avena fatua) herbicidal effect grade: 0 (Herbicidal ratio of 5% or less (almost no effect))
Veronica persica
  R (Veronica persica) herbicidal effect grade: 1 (Herbicidal ratio of 5% or more and less than 20%)
Abutilon theophrasti; [7]
  M (Abutilon theophrasti) herbicidal effect grade: 2 (Herbicidal ratio of 20% or more and less than 40%)
Glycine max
  d (Glycine max) effect on crop grade: 1 (Herbicidal ratio of 5% or more and less than 20%)
Brassica campestris L.; [7]
  g (Brassica campestris L.) effect on crop grade: 0 (Herbicidal ratio of 5% or less (almost no effect))
[4]; [7]
  f (Beta vulgaris ssp. vulgaris) effect on crop grade: 2 (Herbicidal ratio of 20% or more and less than 40%)
Triticum aestivum; [7]
  e (Triticum aestivum) effect on crop grade: 0 (Herbicidal ratio of 5% or less (almost no effect))
Zea mays
  c (Zea mays) effect on crop grade: 0 (Herbicidal ratio of 5% or less (almost no effect))
